# Laboratory results: patent US20150157575A1, “Pharmaceutical Formulations Comprising Vilazodone” (Forest Laboratories Holdings Ltd., priority 2013, published 2015)
# Tests used:
# [1] = In vitro dissolution, USP apparatus 2 (paddle); assay type: physicochemical; conditions: at first 30 minutes; FIGS. 4-6
# Description: In the dissolution testing guideline for immediate release profiles, material dissolves over a period of time, and its dissolution is measured at given intervals during this period. A minimum of three time points is recommended and generally cover early, middle and late stages of the dissolution profile. […] In presence of minor changes to the drug dosage forms, a single point dissolution test may be adequate to ensure product dosing compliance. For major changes, a dissolution profile comparison performed under identical conditions for the product before and after the changes(s) is recommended. […] The term “similarity factor” or F2 factor as used herein refers to one way of comparing dissolution profiles of two different products. (Multisource Pharmaceutical Products: Guidelines on Registration Requirements to establish Interchangeability, Quality Assurance and Safety: Medicines, Essential Drugs and Medicines Policy, World Health Organization, 1211 Geneva 27, Switzerland). This model independent mathematical approach compares the dissolution profile of the two products: test and reference (or two strengths, or pre- and post-approved products from the same manufacturer) and calculates percent (%) difference between two curves at each time point and measures the relative error between two curves. Tests are recommended to be performed under the same test conditions. […]
# [2] = biological target: norepinephrine reuptake site (Homo sapiens, UniProt P23975); conditions: cited from earlier work
# [3] = Hepatic impairment studies: safety assessments (AEs, ECG); assay type: in vivo, human; conditions: for diarrhea, participants: both studies
# Description: Safety assessments included vital signs, clinical laboratory evaluations, ECG, and the collection of adverse events (AEs). […] AEs were recorded at all study visits and as they were reported spontaneously by the participants, up to 30 days after the vilazodone dose. Participants were asked about their well-being at each visit.
# Safety assessments were summarized without statistical comparisons. The last assessment made before the first dose of study drug was used as a baseline for all subsequent analyses.
# dopamine reuptake site = dopamine reuptake site (Homo sapiens, UniProt Q01959); conditions: cited from earlier work
# clinical = assay: clinical; design: species or system human; conditions: both sexes, human, in vivo, Mean trough plasma concentration
# Description: An open-label, multiple-dose, single-sequence study to evaluate the effect of steady-state carbamazepine XR, 400 mg once daily, a CYP3A4 substrate and inducer, on the pharmacokinetics of steady-state vilazodone 40 mg tablets once daily, with hardness of more than 10 kp and less than 14 kp, preferably about 12 kp as shown in Table 3 (No Tablet Breakage). Vilazodone was co-administered with carbamazepine XR (extended release formulation). Carbamazepine is an antiepileptic drug approved for the treatment of psychomotor and grand mal seizures is metabolized by CYP3A4, and is a CYP3A4 inducer.
# All subjects were healthy, nonsmoking male or female volunteers who were 18-45 (Study 2) years of age. Inclusion and exclusion criteria were typical of the criteria used in pharmacokinetic studies in healthy volunteers as known in the art. Inclusion criteria used included agreement to use an effective measure of contraception, body mass index (BMI)>18 and ≦30 kg/m^2 (BMI=18 allowed), normal or clinically non-significant results on physical examination, medical history, serum chemistry, hematology, and urinalysis; negative hepatitis B antigen and C antibody tests, and negative HIV test at screening. Exclusion criteria included clinically significant electrocardiogram results or QT prolongation, clinically significant disease state, history of alcohol abuse, ingestion of food, drink, or drug that may interfere with CYP enzyme activity (e.g., cruciferous vegetables, caffeine, alcohol), known sensitivity to study drug or other drugs from the same class, and use of prohibited concomitant prescription or over-the counter medications.
# All volunteers received 4 treatments (A, B, C, and D) in the same, fixed sequence: Treatment A consisted of vilazodone alone on Days 1-9 and was followed by a 14-day washout, Treatment B was carbamazepine XR alone for 19 days (Days 24-42), Treatment C was vilazodone plus carbamazepine XR for 9 days (Days 43-51), and Treatment D was carbamazepine alone for 3 days (Days 52-54). Once-daily doses of study drug were administered in the morning after breakfast; twice-daily doses were administered in the morning after breakfast and 12 hours later in the evening after dinner Study drug was administered within 30 minutes after the end of the corresponding meal.
# Blood samples to determine plasma concentrations of vilazodone, M17 (the metabolite of vilazodone), carbamazepine, and carbamazepine-10,11-epoxide (one of the pharmacologically active metabolites of carbamazepine) were collected into tubes pretreated with K2EDTA. For vilazodone and M17 analyses, blood samples (approximately 6 mL) were collected at pre-dose on Days 1, 7, 8, 49, and 50. […] For the analyses of carbamazepine and carbamazepine-10,11-epoxide, blood samples were collected at pre-dose on Days 24, 40, 41, 49 and 50.
# Blood samples were centrifuged at no less than 2500 g for 10 minutes at 4° C. within 30 minutes of the sample draw. Plasma was harvested and transferred to polypropylene tubes and flash frozen in a dry ice bath with isopropyl alcohol or methanol. Samples for vilazodone analyses were stored at approximately −70° C. and analyzed. Samples for carbamazepine analyses were stored at −20° C. and analyzed.
# Plasma samples were analyzed for vilazodone, M17, carbamazepine and/or carbamazepine-10,11-epoxide concentrations using liquid chromatography coupled with tandem mass spectrometry (LC/MS/MS). For vilazodone and M17, analytes of interest were detected by electrospray ionization mass spectrometry in the negative ion multiple reaction monitoring mode. The assay was linear in the concentration range of 0.5 to 250 ng/mL for vilazodone and 0.25 to 125 ng/mL for M17.
# Based on 50 ìL of human plasma with K2EDTA as the anticoagulant, the lower limit of quantification (LLOQ) was 0.5 ng/mL for vilazodone and 0.25 ng/mL for M17. […]
# [4] = group with severe hepatic impairment
# [5] = matched controls, 20 mg single dose
# dopamine reuptake site, sequence (Q01959 whole entry): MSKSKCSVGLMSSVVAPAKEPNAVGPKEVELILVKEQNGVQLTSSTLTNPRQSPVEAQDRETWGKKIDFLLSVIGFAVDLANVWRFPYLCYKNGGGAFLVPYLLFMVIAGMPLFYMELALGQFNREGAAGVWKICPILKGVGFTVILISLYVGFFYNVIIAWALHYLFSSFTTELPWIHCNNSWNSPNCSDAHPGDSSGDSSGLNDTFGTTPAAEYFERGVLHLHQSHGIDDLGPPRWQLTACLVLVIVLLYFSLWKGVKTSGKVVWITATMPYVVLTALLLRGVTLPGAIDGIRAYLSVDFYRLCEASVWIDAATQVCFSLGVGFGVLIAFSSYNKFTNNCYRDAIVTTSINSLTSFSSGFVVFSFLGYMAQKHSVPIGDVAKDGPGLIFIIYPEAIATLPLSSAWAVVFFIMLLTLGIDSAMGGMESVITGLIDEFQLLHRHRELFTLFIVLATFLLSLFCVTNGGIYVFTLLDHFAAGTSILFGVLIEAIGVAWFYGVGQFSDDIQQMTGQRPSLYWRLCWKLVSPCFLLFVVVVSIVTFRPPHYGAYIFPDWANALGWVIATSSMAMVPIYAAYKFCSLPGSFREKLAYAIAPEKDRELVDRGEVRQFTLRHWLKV
# norepinephrine reuptake site, sequence (P23975 whole entry): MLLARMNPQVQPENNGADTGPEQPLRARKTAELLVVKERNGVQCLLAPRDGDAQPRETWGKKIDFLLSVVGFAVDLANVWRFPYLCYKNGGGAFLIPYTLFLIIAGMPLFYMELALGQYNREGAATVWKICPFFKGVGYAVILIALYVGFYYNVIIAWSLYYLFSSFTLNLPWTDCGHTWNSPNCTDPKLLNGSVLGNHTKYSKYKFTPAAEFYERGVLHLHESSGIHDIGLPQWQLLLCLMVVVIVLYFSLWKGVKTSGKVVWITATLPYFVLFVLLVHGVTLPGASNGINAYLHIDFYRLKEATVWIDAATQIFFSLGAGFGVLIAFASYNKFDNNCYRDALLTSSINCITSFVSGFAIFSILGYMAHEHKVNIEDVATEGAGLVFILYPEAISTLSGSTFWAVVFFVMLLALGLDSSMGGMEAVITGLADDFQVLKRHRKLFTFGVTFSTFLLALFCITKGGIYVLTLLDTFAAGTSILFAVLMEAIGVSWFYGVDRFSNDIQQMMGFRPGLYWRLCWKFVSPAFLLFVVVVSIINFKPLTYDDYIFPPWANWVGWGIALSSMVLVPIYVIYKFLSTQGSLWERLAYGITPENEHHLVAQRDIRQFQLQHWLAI
structure (smiles),measurement,setting,value
"Cl.N#Cc1ccc2[nH]cc(CCCCN3CCN(c4ccc5oc(C(N)=O)cc5c4)CC3)c2c1 [Vilazodone, 1-[4-(5-cyanoindol-3-yl)butyl]-4-(2-carbamoyl-benzofuran-5-yl)-piperazine hydrochloride]",vilazodone HCl released,[1],80%
same,binding to norepinephrine reuptake site,[2],not
same,"decrease in QT interval (mean, screening to end of study)",[3]; [4],14.9 ms
same,"increase in QTcB interval (Bazett formula; mean, screening to end of study)",[3]; [4],8.7 ms
same,"deaths, serious AEs, discontinuations due to an AE","[3]; hepatic impairment studies, 20 mg single dose","No deaths, serious AEs, or discontinuations due to an AE"
same,"diarrhea, participants",[3]; [5],5 participants
same,"vomiting, participants",[3]; [5],0 participants
same,"vomiting, participants","[3]; participants with hepatic impairment (all severe), 20 mg single dose",4 participants
same,"diarrhea, participants","[3]; participants with hepatic impairment, 20 mg single dose",10 participants
same,binding to dopamine reuptake site,dopamine reuptake site,not
same,concentration at 7 day,clinical,36 ng/mL
same,concentration at 8 day,clinical,45.1 ng/mL
same,concentration at 9 day,clinical,45.3 ng/mL
